{"source": "patent US20050159432A1", "about": "“Short form c-Maf transcription factor antagonists for treatment of glaucoma” (Alcon, Inc., priority 2003, published 2005)", "molecules": {"B1": {"name": "TGFβ2: transforming growth factor beta 2, used for induction of gene expression (protein, UniProt P61812 303-414, looked up)", "Transforming growth factor …": "ALDAAYCFRNVQDNCCLRPLYIDFKRDLGWKWIHEPKGYNANFCAGACPYLWSSDTQHSRVLSLYNTINPEASASPCCVSQDLEPLTILYYIGKTPKIEQLSNMIVKSCKCS"}}, "key": {"[1]": {"tested_on": "short-form c-Maf gene expression", "test": "QPCR analysis of short-form c-Maf gene expression in TM70A trabecular meshwork cells", "format": "cell-based, Human", "details": "10^−7 M dexamethasone, c-Maf/18S normalized ratio, n=3", "description": "Human trabecular meshwork (TM) cells were derived from donor eyes (Central Florida Lions Eye and Tissue Bank, Tampa, Fla.) and cultured as previously described (Steely, et al. (1992), Invest Ophthalmol Vis Sci 33(7): 2242-50; Wilson, et al. (1993), Curr Eye Res 12(9): 783-93; Clark, et al. (1994), Invest Ophthalmol Vis Sci 35(1): 281-94.; Dickerson, et al. (1998), Exp Eye Res 66(6): 731-8; Wang, et al. (2001), Mol Vis 7: 89-94). TM cells were derived from pools of four each of either normal or glaucoma cell lines. Total RNA was isolated from TM cells from each pool using TRIZOL® reagent according to the manufacturer's instructions (Invitrogen, Carlsbad, Calif.). […]\nMeasurement of short form c-Maf gene expression was performed by quantitative real-time RT-PCR (QPCR) using an ABI PRISM® 7700 Sequence Detection System (Applied Biosystems) essentially as described Shepard, et al. (2001) Invest Ophthalmol Vis Sci 42(13): 3173-81. […] The “Minor Groove Binding Non-Fluorescent Quencher” was bound to the 3′ end of the probe and is used to quench the fluorescence from 6FAM. […] Quantification of relative cDNA concentrations was done using the relative standard curve method as described in PE Biosystems User Bulletin #2, ABI PRISM® 7700 Sequence Detection System, 2001 (Applied BioSystems). […]"}, "[2]": {"tested_on": "short-form c-Maf gene expression", "test": "QPCR analysis of short-form c-Maf gene expression in SGTM2697 glaucomatous trabecular meshwork cells", "format": "cell-based, Human", "description": "Human trabecular meshwork (TM) cells were derived from donor eyes (Central Florida Lions Eye and Tissue Bank, Tampa, Fla.) and cultured as previously described (Steely, et al. (1992), Invest Ophthalmol Vis Sci 33(7): 2242-50; Wilson, et al. (1993), Curr Eye Res 12(9): 783-93; Clark, et al. (1994), Invest Ophthalmol Vis Sci 35(1): 281-94.; Dickerson, et al. (1998), Exp Eye Res 66(6): 731-8; Wang, et al. (2001), Mol Vis 7: 89-94). TM cells were derived from pools of four each of either normal or glaucoma cell lines. Total RNA was isolated from TM cells from each pool using TRIZOL® reagent according to the manufacturer's instructions (Invitrogen, Carlsbad, Calif.).\nFirst strand cDNA was generated from 1 μg of total RNA using random hexamers and TAQMAN® Reverse Transcription reagents according to the manufacturer's instructions (Applied Biosystems, Foster City, Calif.). The 100 μl reaction was subsequently diluted 20-fold to achieve an effective cDNA concentration of 0.5 ng/μl.\nMeasurement of short form c-Maf gene expression was performed by quantitative real-time RT-PCR (QPCR) using an ABI PRISM® 7700 Sequence Detection System (Applied Biosystems) essentially as described Shepard, et al. (2001) Invest Ophthalmol Vis Sci 42(13): 3173-81. Primers for short form-specific c-Maf amplification (Genbank accession #AF055376) were designed using PRIMER EXPRESS® software (Applied Biosystems). Forward and reverse primer sequences were […], SEQ ID NO:1, (nucleotides 3773-3799) and […], SEQ ID NO:2, (nucleotides 3823-3847), and the minor groove binding probe sequence was CTGCAAGCATATAATACA, SEQ ID NO:3, (nucleotides 3801-3818). 6FAM was bound to the 5′ end of the minor groove binding probe and refers to the type of fluorophore attached to the TAQMAN® probe. Other choices for the fluorophore are the JOE™ Fluorophore (Applied Biosystems) or VIC™ fluorophore (Applied Biosystems). The “Minor Groove Binding Non-Fluorescent Quencher” was bound to the 3′ end of the probe and is used to quench the fluorescence from 6FAM. […] Quantification of relative cDNA concentrations was done using the relative standard curve method as described in PE Biosystems User Bulletin #2, ABI PRISM® 7700 Sequence Detection System, 2001 (Applied BioSystems). […]\nShort form c-Maf gene expression was analyzed using the Affymetrix U133A GENECHIP® analysis described in Example 2 of a pool of glaucomatous trabecular meshwork cells designated SGTM2697. […]\nThe effect of small molecule inhibition on short-form c-Maf gene expression was analyzed by QPCR analysis as described in Example 2 in glaucomatous trabecular meshwork (Passage 6) cells designated SGTM2697. […]"}}, "data": [{"molecule": "C[C@@H]1C[C@H]2[C@@H]3CCC4=CC(=O)C=C[C@]4(C)[C@@]3(F)[C@@H](O)C[C@]2(C)[C@@]1(O)C(=O)CO", "note": "[dexamethasone]", "values": [{"measurement": "short form c-Maf upregulated compared to control, day one", "setting": "[1]; 1 day", "result": 2.1, "unit": "fold"}, {"measurement": "short form c-Maf upregulated compared to control, day 14", "setting": "[1]; 14 days", "result": 3.2, "unit": "fold"}]}, {"molecule": "CC(C)[C@H](CO)Nc1nc(Nc2cccc(Cl)c2)c2ncn(C(C)C)c2n1", "note": "[purvalanol A, 2-(1R-Isopropyl-2-hydroxyethylamino)-6-(3-chloroanilino)-9-isopropylpurine]", "values": [{"measurement": "effect on TGFβ2-induced c-Maf expression", "setting": "[2]; SGTM2697 (Passage 6) cells, co-treatment with 5 ng/ml TGFβ2, 16 hours, n=6", "result": "completely abolished"}, {"measurement": "basal c-Maf levels downregulated", "setting": "[2]; SGTM2697 (Passage 6) cells, without TGFβ2, 16 hours, n=6", "result": 2.6, "unit": "fold"}]}, {"molecule": "B1", "values": [{"measurement": "short-form c-Maf upregulated by TGFβ2", "setting": "[2]; SGTM2697 (Passage 6) cells, 5 ng/ml TGFβ2, 16 hours, n=6", "result": 17, "unit": "fold"}, {"measurement": "short form c-Maf upregulated compared to control", "setting": "[2]; pooled SGTM2697 cells, 5 ng/ml TGFβ2, 16 hours, c-Maf/18S normalized ratio, n=3", "result": 16, "unit": "fold"}]}]}
